Where a name gives a salt, the structure may show the parent alone. Read-outs that look alike come from different tables or passages of the source.
Experiments:
[1] = test system: Human small cell lung cancer LX-1 cell strain; test: Antitumor activity against subcutaneously transplanted LX-1 tumor in nude mice; type: in vivo; conditions: single agent at maximum tolerated dose (amrubicin hydrochloride 25 mg/kg; cisplatin 10 mg/kg), single intravenous administration, measured for 23 days
Experimental: Human small cell lung cancer LX-1 cell strain was subcutaneously transplanted to nude mice (80 animals) at 5 weeks of age. After 15 days from the tumor transplantation, 36 animals having a tumor volume of about 200 to 500 mm^3 were allotted to 6 groups consisting of 6 animals per group. On the same day, the animals received intravenous administration, respectively, of physiological saline for “vehicle group”, the maximum tolerated dose of amrubicin hydrochloride (25 mg/kg) for “an amrubicin hydrochloride alone administration group”, the maximum tolerated dose of cisplatin (10 mg/kg) for “cisplatin alone administration group”, 0.5 times of the maximum tolerated dose of amrubicin hydrochloride and 0.5 times of the maximum tolerated dose of cisplatin for “combined administration group (0.5×MTD)”, 0.8 times of the maximum tolerated dose of amrubicin hydrochloride and 0.8 times of the maximum tolerated dose of cisplatin for “combined administration group (0.8×MTD)”, the maximum tolerated dose of amrubicin hydrochloride and the maximum tolerated dose of cisplatin for “combined administration group (1×MTD)”. Thereafter, tumor volume and body weight of the mice were measured for 23 days. […]
The minimum T/C % was calculated as follows: […]

[2] = humans, cited from earlier work
[3] = test system: tumor cells; conditions: Cancer Chemothr. Pharmacol., 30, 51-57 (1992); cited from earlier work
[4] = rabbit chronic experimental model; Invest. New Drug, 15, 219-225 (1997); cited from earlier work

For `CC(=O)[C@]1(N)Cc2c(O)c3c(c(O)c2[C@@H](OC2CC(O)C(O)CO2)C1)C(=O)c1ccccc1C3=O` (stereo partly shown) [amrubicin hydrochloride], the “Minimum T/C %” value [1] is given as 55%, the maximum tolerated dose ([2]; administration in 3 continuous days) is given as 50 mg/m^2 per day and the maximum tolerated dose ([2]; once a day single dose) is given as 130 mg/m^2.

In the case of `N.N.[Cl][Pt][Cl]` [cisplatin, cis-diammin dichloroplatinum], the “Minimum T/C %” value [1] is listed as 68% and the maximum tolerated dose [2] is listed as 90 mg/m^2.

In the case of `CC(O)[C@]1(N)Cc2c(O)c3c(c(O)c2[C@@H](O[C@H]2C[C@H](O)[C@H](O)CO2)C1)C(=O)c1ccccc1C3=O` (stereo partly shown) [amrubicinol], the “inhibitory activity against growth of tumor cells compared with amrubicin” value [3] is given as “considerably stronger”.

In the case of `CC(=O)[C@]1(N)Cc2c(O)c3c(c(O)c2[C@@H](O[C@H]2C[C@H](O)[C@H](O)CO2)C1)C(=O)c1ccccc1C3=O` [amrubicin, (+)-(7S,9S)-9-acetyl-9-amino-7-[(2-deoxy-β-D-erythro-pentopyranosyl)oxy]-7,8,9,10-tetrahydro-6,11-dihydroxy-5,12-naphthacenedione], the “cardiac toxicity compared with doxorubicin” value [4] is listed as “far weaker than doxorubicin”.

Source: patent publication US8287918B2, “Medicament for treating lung cancer” (Dainippon Sumitomo Pharma Co., Ltd., priority 2001, dated 2012)
